From patent publication US5384406A, “Water-soluble biologically active ammonium salts” (ISP Investments Inc., priority 1993, dated 1995)
Like-named read-outs stand apart in the source and are kept apart here.

How the values were obtained:
solubility in water = test: solubility in water
Procedure: Example 1 was repeated, except that 2 g of heavy water replaced 150 g of methanol solvent, 0.3 g of Dicamba replaced 30 g Dicamba and 0.16 g of AEP replaced 15.8 g of AEP.
(§1) In a 250 ml round bottom flask 15.5 g (0.482 millimole) of a commercial herbicide, imazaquin* (97.4% pure, having an average molecular weight of 311.4) was suspended in 100 g water. To the suspension, 6.1 g (0.469 millimole) of 98.5% pure AEP was added. […] 2-[4,5-dihydro-4-methyl-4-(methylethyl)-5-oxo-1H-imidazol-2-yl]-3-quinoline e carboxylic acid.
To a solution containing 13 g (0.1 mole) AEP (98.5% pure) dissolved in 30 g water in a 100 ml round bottom flask was added at 25° C. and with constant agitation, 16.9 g (0.1 mole) of water insoluble solid phosphonomethyl glycine.
To one liter of water was added 15.42 g of 2,4 D+7.11 g of mecoprop +1.83 g of 90% pure dicamba. After which 13.83 g AEP was added to the mixture. […] To the above solution was added 9 g of polyalkylene oxide modified by polydimethyl siloxane (Silvelt 7607 wetting agent) from Union Carbide. The mixture was stirred and the total weight was adjusted to 3000 g by adding water.

[1] = Procedure: A solution containing 25 g of the AEP salt of commercial imazaquin in water was prepared from a suspension of 25 g of imazaquin in 50 g water to which was added a stoichiometric amount of AEP (10.2 g) and an additional 15 g of water. The solution was stirred for 30 minutes after which it was filtered and the pH of the filtrate was adjusted to 7.2.
[2] = aqueous solution after filtration, not adjusted
Procedure: as §1

[3] = system: broad leaf plants and perennial weeds; test: evaluation as aquatic herbicide and broad spectrum growth inhibitor, compared with the isopropyl amine salt of phosphonomethyl glycine; format: in vivo
Procedure: A suspension of 169 g of phosphonomethyl glycine in 301 g water was prepared and 130 g 98.5% pure AEP was added slowly with stirring until all of the phosphonomethyl glycine dissolved as the AEP salt. The resulting solution, (containing 28% of the active ingredient expressed as the free acid or 49.5% of the active ingredient expressed as the AEP salt) was evaluated as an aquatic herbicide and as a broad spectrum growth inhibitor for broad leaf plants and perennial weeds and compared with the isopropyl amine salt of phosphonomethyl glycine.

COc1c(Cl)ccc(Cl)c1C(=O)O [reference compound]
solubility in water (in words) (solubility in water): very poor solubility | solubility (solubility in water; water): < 1000 µg/mL

CC(C)C1(C)N=C(c2nc3ccccc3cc2C(=O)O)NC1=O.NCCN1CCCC1=O (stereo not shown) [Example 3, N-pyrrolidonyl ethyl ammonium salt of imazaquin]
dissolution of freeze-dried solid in water (solubility in water; 0.1 g in 50 g of water): dissolved completely | storage stability of solution ([1]; ambient conditions, stored for 6 months): stable under ambient conditions without any precipitation | precipitation after cooling and reheating ([1]; cooling to 0° C., then to room temperature): no precipitation was observed | pH of the filtrate [2]: 7.2

NCCN1CCCC1=O.O=C(O)CNCP(=O)(O)O [Example 5, N-pyrrolidonyl ethyl ammonium salt of phosphonomethyl glycerine]
soluble in water (solubility in water; isolated AEP salt): more than 50% | kill [3]: significantly higher and more permanent kill

COc1c(Cl)ccc(Cl)c1C(=O)O.NCCN1CCCC1=O [Example 1, N-pyrrolidonyl ethyl ammonium salt of 3,6-dichloro-l-methoxy benzoic acid]
solubility in water (in words) (solubility in water; water): easily dissolved in 60% water | solubility in water (in words) (solubility in water; water, listed as Example 2): easily solubilized in water
